# Data reported in patent US20120322829A1, “USE OF A DIPYRIDYL COMPOUND FOR TREATING ROSACEA” (GALDERMA RESEARCH & DEVELOPMENT, priority 2009, published 2012).
# Key:
# Assay type in all cases: biochemical
# MMP-2 = target: T1, MMP-2 (Homo sapiens, UniProt P08253); experiment: MMP-2 activity, fluorometric detection of reaction product; settings: 10 μM; human recombinant protein; remaining activity
# T1 sequence (P08253 110-660): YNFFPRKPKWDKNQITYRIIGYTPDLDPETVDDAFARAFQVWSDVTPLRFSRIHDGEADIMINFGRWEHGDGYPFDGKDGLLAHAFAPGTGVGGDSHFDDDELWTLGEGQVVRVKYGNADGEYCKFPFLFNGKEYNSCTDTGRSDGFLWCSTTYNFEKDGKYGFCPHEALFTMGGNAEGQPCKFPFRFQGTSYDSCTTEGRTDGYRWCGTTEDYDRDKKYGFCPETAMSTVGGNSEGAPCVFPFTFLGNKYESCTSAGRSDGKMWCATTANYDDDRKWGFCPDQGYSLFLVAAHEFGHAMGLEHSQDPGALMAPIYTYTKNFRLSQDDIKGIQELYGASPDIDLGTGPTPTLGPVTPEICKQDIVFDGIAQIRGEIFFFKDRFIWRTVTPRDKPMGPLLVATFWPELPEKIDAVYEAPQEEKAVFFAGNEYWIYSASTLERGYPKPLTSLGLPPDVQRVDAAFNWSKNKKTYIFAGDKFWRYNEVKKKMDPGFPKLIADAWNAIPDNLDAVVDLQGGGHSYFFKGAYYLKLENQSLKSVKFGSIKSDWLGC
# Method: (§1) The activity of MMPs of MMP-1, MMP-2, MMP-9, MMP-12, MMP-13 and TACE was measured using human recombinant proteins. The activity of MMP-8 was measured in human neutrophiles. After incubation with the corresponding substrate, the reaction product of each MMP was detected by fluorometry. The results are expressed as specific control activity percentages ((specific activity measured/specific control activity)×100) obtained in the presence of the compounds tested.
# [1] = target: TACE (TNF-alpha converting enzyme) (Homo sapiens, UniProt P78536); experiment: TACE activity, fluorometric detection of reaction product; settings: 10 μM; human recombinant protein; remaining activity
# TACE (TNF-alpha converting enzyme), sequence (P78536 215-824): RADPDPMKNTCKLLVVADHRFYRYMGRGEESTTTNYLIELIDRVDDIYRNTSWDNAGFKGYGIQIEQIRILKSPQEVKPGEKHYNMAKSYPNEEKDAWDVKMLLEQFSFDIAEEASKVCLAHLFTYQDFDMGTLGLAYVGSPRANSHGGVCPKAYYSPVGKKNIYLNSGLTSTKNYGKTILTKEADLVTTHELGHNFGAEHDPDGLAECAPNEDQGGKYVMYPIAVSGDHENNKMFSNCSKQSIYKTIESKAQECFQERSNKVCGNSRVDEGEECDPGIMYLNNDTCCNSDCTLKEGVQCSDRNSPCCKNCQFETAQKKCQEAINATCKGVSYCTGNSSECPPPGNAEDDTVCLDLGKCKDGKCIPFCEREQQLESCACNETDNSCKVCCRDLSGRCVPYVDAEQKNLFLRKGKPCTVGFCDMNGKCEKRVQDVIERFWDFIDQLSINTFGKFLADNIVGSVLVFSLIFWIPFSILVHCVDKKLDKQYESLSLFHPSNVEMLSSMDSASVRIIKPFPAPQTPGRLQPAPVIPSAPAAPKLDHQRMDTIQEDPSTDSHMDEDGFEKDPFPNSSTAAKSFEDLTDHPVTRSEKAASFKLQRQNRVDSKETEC
# Method: as §1
# MMP-13 = MMP-13 (Homo sapiens, UniProt P45452); experiment: MMP-13 activity, fluorometric detection of reaction product; settings: 10 μM; human recombinant protein; remaining activity
# Method: as §1
# MMP-12 = MMP-12 (Homo sapiens, UniProt P39900); experiment: MMP-12 activity, fluorometric detection of reaction product; settings: 10 μM; human recombinant protein; remaining activity
# MMP-12, sequence (P39900 106-470): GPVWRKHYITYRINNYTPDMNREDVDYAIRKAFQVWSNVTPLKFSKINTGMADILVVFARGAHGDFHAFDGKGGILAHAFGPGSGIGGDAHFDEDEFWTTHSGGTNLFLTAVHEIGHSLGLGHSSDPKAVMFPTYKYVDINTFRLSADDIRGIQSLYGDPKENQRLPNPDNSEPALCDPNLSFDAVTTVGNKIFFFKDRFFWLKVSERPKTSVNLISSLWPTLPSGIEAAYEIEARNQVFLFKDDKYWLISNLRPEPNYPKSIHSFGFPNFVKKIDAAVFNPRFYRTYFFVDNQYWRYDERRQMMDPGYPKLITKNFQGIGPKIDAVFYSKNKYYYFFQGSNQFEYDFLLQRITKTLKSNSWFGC
# Method: as §1
# MMP-9 = MMP-9 (Homo sapiens, UniProt P14780); experiment: MMP-9 activity, fluorometric detection of reaction product; settings: 10 μM; human recombinant protein; remaining activity
# MMP-9, sequence (P14780 94-707): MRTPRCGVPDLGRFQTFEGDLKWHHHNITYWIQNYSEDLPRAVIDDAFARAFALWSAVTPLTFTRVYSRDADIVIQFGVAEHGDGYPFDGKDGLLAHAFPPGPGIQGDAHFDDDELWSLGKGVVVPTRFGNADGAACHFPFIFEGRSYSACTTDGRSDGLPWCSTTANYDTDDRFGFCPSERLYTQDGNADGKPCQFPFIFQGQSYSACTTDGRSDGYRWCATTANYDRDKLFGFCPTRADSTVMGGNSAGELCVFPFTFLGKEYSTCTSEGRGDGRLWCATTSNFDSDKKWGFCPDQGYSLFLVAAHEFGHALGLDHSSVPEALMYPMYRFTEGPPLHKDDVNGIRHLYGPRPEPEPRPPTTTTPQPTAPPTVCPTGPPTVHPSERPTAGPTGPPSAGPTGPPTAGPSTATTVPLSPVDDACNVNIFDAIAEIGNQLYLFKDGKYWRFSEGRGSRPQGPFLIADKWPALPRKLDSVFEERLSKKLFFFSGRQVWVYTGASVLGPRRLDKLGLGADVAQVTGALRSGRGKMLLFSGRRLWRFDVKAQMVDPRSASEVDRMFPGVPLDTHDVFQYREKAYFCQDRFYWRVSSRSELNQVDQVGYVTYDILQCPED
# Method: as §1
# MMP-14 = MMP-14 (Homo sapiens, UniProt P50281); experiment: MMP-14 activity; settings: 10 μM; remaining activity
# MMP-8 = target: T2, MMP-8 (Homo sapiens, UniProt P22894); experiment: MMP-8 activity measured in human neutrophiles, fluorometry; settings: 10 μM, remaining activity
# T2 construct: endogenous in cells; host or cells: human neutrophils
# T2 sequence (P22894 101-467): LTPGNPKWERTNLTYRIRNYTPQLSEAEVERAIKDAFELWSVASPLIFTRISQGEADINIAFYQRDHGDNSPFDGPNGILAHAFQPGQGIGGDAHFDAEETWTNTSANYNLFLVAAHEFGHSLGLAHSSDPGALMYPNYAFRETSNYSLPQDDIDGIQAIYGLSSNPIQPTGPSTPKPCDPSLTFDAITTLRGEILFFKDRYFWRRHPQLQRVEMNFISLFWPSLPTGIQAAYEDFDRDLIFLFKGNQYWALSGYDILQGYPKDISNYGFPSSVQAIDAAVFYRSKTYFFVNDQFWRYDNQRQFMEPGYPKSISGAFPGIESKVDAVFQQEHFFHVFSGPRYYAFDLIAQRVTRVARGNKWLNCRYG
# Method: as §1
# MMP-1 = target: T3, MMP-1 (Homo sapiens, UniProt P03956); experiment: MMP-1 activity, fluorometric detection of reaction product; settings: 10 μM; human recombinant protein; remaining activity
# T3 sequence (P03956 100-469): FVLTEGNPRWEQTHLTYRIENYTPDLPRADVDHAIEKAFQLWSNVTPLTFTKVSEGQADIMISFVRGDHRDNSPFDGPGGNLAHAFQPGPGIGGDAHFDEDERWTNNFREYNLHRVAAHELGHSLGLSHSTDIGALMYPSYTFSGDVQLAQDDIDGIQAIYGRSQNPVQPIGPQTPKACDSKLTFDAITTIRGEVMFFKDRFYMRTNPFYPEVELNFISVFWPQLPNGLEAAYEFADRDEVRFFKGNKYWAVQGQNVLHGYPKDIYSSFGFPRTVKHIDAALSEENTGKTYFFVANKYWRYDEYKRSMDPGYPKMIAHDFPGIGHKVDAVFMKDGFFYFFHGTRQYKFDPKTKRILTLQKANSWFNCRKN
# Method: as §1
Structure (SMILES),"MMP activity (% of control values ± SD), MMP-2 (MMP-2)","MMP activity (% of control values ± SD), TACE [1]","MMP activity (% of control values ± SD), MMP-13 (MMP-13)","MMP activity (% of control values ± SD), MMP-12 (MMP-12)","MMP activity (% of control values ± SD), MMP-9 (MMP-9)","MMP activity (% of control values ± SD), MMP-14 (MMP-14)","MMP activity (% of control values ± SD), MMP-8 (MMP-8)","MMP activity (% of control values ± SD), MMP-1 (MMP-1)"
"Cc1ccnc(-c2cc(C)ccn2)c1 [4,4′-dimethyl-2,2′-dipyridyl]",100.8 ± 6.0 % of control values,106.4 ± 1.2 % of control values,90.0 ± 4.1 % of control values,96.3 ± 1.0 % of control values,88.5 ± 3.4 % of control values,90.8 ± 4.7 % of control values,86.5 ± 7.4 % of control values,94.3 ± 0.1 % of control values
"Cc1ccc(-c2ccc(C)cn2)nc1 [5,5′-dimethyl-2,2′-dipyridyl]",86.4 ± 2.2 % of control values,100.8 ± 2.1 % of control values,89.4 ± 1.2 % of control values,93.4 ± 0.4 % of control values,86.0 ± 3.4 % of control values,90.2 ± 4.1 % of control values,88.3 ± 6.7 % of control values,96.1 ± 0.3 % of control values
"Cc1cccc(-c2cccc(C)n2)n1 [6,6′-dimethyl-2,2′-dipyridyl]",95.9 ± 7.5 % of control values,100.3 ± 0.2 % of control values,96.2 ± 2.6 % of control values,96.3 ± 1.0 % of control values,101.0 ± 3.3 % of control values,84.3 ± 3.0 % of control values,95.0 ± 6.5 % of control values,98.8 ± 0.7 % of control values
